Reference: patent US6617335B1, “Preparation and drug composition of bis-benzyl-isoquinoline class alkaloids” (Kanghong USA, Inc., priority 2002, dated 2003)
Values belong to the compound of their own block, whether it stands above or below them.

Columns and labels:
[1] = system: P388/adr; test: In vitro reversal of multi drug resistance to vinblastine in P388/adr cells; type: cell-based; conditions: vinblastine against multi drug resistance cell line P388/adr
Experimental: The IC50 value was in the range of 2-3 μg/mL, the reversal index against P388 was around 20, and most of the compounds completely reversed multi drug resistance of vinblastine-treated tumor cells.

[2] = system: Salmonella typhimurium TA97, TA98, TA100 and TA102; test: Mutagenicity test (Ames method); conditions: plate method, dosages 100, 20, 4, 0.8, 0.16
Experimental: Determinations were carried out the using Salmonella typhimurium […] mutants types TA97, TA98, TA100 and TA102 to detect the mutagenicity of said compound. Mutagenicity was determined according to the method of Ames. (Ames, B., et al. (1973). An improved bacterial test system for the detection and classification of mutagens and carcinogens. Proc. Natl. Acad. Sci. USA 70: 782-786). In the plate method with dosages of 100, 20, 4, 0.8, and 0.16, compared with the blank control, (self made compound S9), counting the number of reversed mutative colony changed, to decide the mutagenicity of the test compound.

[3] = system: P388/adr; test: In vivo study of inhibition of MDR activity, nude mice xenografted with P388/adr
Experimental: Method: Using defined characteristics of […] P388/adr cell line in a nude mice model to determine the inhibition of MDR activity. Quantitative subcutaneous injection of P388 cell into the armpit of nude mice was followed for a certain period of time. […] The formulations and a cepharanthine control were administered by intraperitoneal injection for 2 to 4 times a day, and the animals consecutively observed for 10 days. Life span and survival rates were calculated.

[4] = system: P388/adr cell line; test: Isotopic determination of vincristine concentration in the P388/adr cell line; type: cell-based; conditions: P388/adr MDR cells; for inhibition of MDR activity / intracellular isotope marker concentration compared with verapamil: three levels; for intracellular vinca alkaloid concentration, combined therapy vs other known MDR inhibitors (tetrandrine, fangchinoline, cepharanthine): low, middle and high dosages
Experimental: Method: By using an isotope marker, differences were observed between intracellular vincristine concentrations during combined therapy and single therapy. […] The dosages were arranged in low, middle and high groups in parallel studies, results were calculated in dpm of vincristine concentration in the cell.

[5] = in vivo
Experimental: Method: LDs50 values for the compounds of formula (I) were calculated according to the method of Gaddum and Gu Han Yi.

- melting point: 175 to 176 °C
Compound: CCCOc1c(OC)cc2c3c1Oc1cc4c(cc1OC)CCN(C)[C@H]4Cc1ccc(cc1)Oc1cc(ccc1OC)C[C@@H]3N(C)CC2

- IC50 value [1]: 11.7 µg/mL
Compound: cepharanthine

Compound: COc1ccc2cc1Oc1ccc(cc1)C[C@H]1c3cc(c(OC)cc3CCN1C)Oc1c(OC)c(OC)c(Br)c3c1[C@H](C2)N(C)CC3 [Example 8, 5-bromo-tetrandrine]
- mutagenicity (Ames) [2]: void of mutagenicity
- inhibition of MDR activity of vinblastine against P388/adr compared with cepharanthine (VIII) [3]: significantly stronger
- increase of survival rates by the combined therapy ([3]; combined therapy with vinca alkaloid vs monotherapy, intraperitoneal, observed 10 days): 37.7%
- inhibition of MDR activity / intracellular isotope marker concentration compared with verapamil [4]: corresponding to verapamil
- inhibition of MDR activity / intracellular isotope marker concentration compared with verapamil ([4]; listed as Example No. 8): comparable to the available agent verapamil
- intracellular vinca alkaloid concentration, combined therapy vs monotherapy ([4]; isotope marker): significantly higher
- intracellular vinca alkaloid concentration, combined therapy vs other known MDR inhibitors (tetrandrine, fangchinoline, cepharanthine) ([4]; isotope marker): significantly higher
- intracellular vinca alkaloid concentration, combined therapy vs other known MDR inhibitors (tetrandrine, fangchinoline, cepharanthine) ([4]; isotope marker, listed as Example No. 8): higher
- LD50 at 1 month ([5]; in vivo, route not stated at this place, read-out: acute toxicity LD50): > 125 mg/kg
- LDs50, intraperitoneal administration ([5]; intraperitoneal): > 368 mg/kg bodyweight
- LDs50, intravenous administration ([5]; intravenous): > 125 mg/kg bodyweight

- melting point: 184 to 185 °C
Compound: COc1cc(Br)c2cc1Oc1ccc(cc1)C[C@H]1c3cc(c(OC)cc3CCN1C)Oc1c(OC)c(OC)c(Br)c3c1[C@H](C2)N(C)CC3 [Example 9, 5,14-dibromo-tetrandrine]
